Drawing on US20250388605A1, “HETEROBIFUNCTIONAL COMPOUNDS AND METHODS OF TREATING DISEASE” (Halda Therapeutics OpCo, Inc., priority 2022, published 2025), this text covers Ki for 24 molecules.

The assay deals with T1, androgen receptor (Homo sapiens, UniProt P10275).
T1 construct: host or cells: unnamed cells, cytosolic fraction
T1 sequence (P10275 1-920): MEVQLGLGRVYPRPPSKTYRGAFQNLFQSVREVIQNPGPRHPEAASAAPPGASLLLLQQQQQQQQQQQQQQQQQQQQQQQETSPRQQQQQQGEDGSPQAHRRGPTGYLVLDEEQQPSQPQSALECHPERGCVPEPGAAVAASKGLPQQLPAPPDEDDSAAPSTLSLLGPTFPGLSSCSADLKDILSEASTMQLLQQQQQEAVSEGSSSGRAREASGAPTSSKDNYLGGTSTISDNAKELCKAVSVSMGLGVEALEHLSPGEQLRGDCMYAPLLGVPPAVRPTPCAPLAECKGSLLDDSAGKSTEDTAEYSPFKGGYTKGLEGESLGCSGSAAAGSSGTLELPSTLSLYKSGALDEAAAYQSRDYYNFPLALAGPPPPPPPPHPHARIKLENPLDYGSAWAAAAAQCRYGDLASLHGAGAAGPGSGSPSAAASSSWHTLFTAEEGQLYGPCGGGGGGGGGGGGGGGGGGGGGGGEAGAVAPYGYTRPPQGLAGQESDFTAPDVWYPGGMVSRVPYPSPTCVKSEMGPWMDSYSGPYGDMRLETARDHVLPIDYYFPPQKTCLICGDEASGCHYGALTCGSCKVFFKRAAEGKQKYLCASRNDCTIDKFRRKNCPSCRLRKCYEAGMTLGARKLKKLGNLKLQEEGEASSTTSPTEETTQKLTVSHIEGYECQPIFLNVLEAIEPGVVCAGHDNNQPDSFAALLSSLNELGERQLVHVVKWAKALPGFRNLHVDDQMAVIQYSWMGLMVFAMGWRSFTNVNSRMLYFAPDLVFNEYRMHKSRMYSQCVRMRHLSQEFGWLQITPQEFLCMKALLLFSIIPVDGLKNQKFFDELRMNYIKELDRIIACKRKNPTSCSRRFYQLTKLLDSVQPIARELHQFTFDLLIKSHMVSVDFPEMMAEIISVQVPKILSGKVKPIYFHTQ
Put plainly: Assay for binding affinity to androgen receptor ([3H]methyltrienolone radioligand competition, cell cytosol). The conditions noted are these: binding to the androgen receptor, 1 nM [3H]methyltrienolone, 24 hr at 4° C. Here is the method:
Fractions of cell cytosol ([…]) were incubated for 24 hr at 4° C. with 1 nM [^3H]methyltrienolone in the absence or presence of the test compound in a buffer containing 25 mM Hepes-Tris (pH 7.4), 1 mM EDTA, 10 mM Na2MoO4, 2 mM DTT, 5 μM triamcinolone acetonide, and 10% glycerol. Nonspecific binding was determined in the presence of […] testosterone. Following incubation, the samples were filtered rapidly under vacuum through glass fiber filters (GF/B, Packard) presoaked with 0.3% PEI and rinsed several times with ice-cold 50 mM Tris-HCl using a 96-sample cell harvester (Unifilter, Packard). The filters were dried then counted for radioactivity in a scintillation counter (Topcount, Packard) using a scintillation cocktail (Microscint 0, Packard). The results are expressed as a percent inhibition of the control radioligand specific binding. The standard reference compound is testosterone, which is tested in each experiment at several concentrations to obtain a competition curve from which its IC50 is calculated.
As to `Cn1cc(-c2cc(N)ccc2Oc2cccc(OCCN3CCN(c4ncc(C(=O)N[C@H]5C(C)(C)[C@H](Oc6ccc(C#N)c(Cl)c6)C5(C)C)cn4)CC3)c2F)c2cc[nH]c2c1=O` [Compound I-100], the Ki (in general, the dissociation constant of the complex between target and ligand, obtained from inhibition or displacement) is below 50 nM.
As for `CCS(=O)(=O)Nc1ccc(Oc2cccc(NCCOC3CCN(c4ncc(C(=O)N[C@H]5C(C)(C)[C@H](Oc6ccc(C#N)c(Cl)c6)C5(C)C)cn4)CC3)c2)c(-c2cn(C)c(=O)c3[nH]ccc23)c1` [Compound I-84], the figure is below 50 nM; as for `CCS(=O)(=O)Nc1ccc(Oc2cccc(COC3CCN(c4ncc(C(=O)N[C@H]5C(C)(C)[C@H](Oc6ccc(C#N)c(Cl)c6)C5(C)C)cn4)CC3)c2)c(-c2cn(C)c(=O)c3[nH]ccc23)c1` [Compound I-18, N-((1r, 3r)-3-(3-chloro-4-cyanophenoxy)-2,2,4,4-tetramethylcyclobutyl)-2-(4-((3-(4-(ethylsulfonamido)-2-(6-methyl-7-oxo-6,7-dihydro-1H-pyrrolo[2,3-c]pyridin-4-yl)phenoxy)benzyl)oxy)piperidin-1-yl)pyrimidine-5-carboxamide], below 50 nM.
`CCS(=O)(=O)Nc1ccc(Oc2cccc(OCCOCCOCCOCCOCCOC3CCN(c4ncc(C(=O)N[C@H]5C(C)(C)[C@H](Oc6ccc(C#N)c(Cl)c6)C5(C)C)cn4)CC3)c2)c(-c2cn(C)c(=O)c3[nH]ccc23)c1` [Compound I-8]: the Ki is below 50 nM.
Regarding `Cn1cc(-c2cc(N)ccc2Oc2cccc(N3CC(N4CCN(c5ncc(C(=O)N[C@H]6C(C)(C)[C@H](Oc7ccc(C#N)c(Cl)c7)C6(C)C)cn5)CC4)C3)c2F)c2cc[nH]c2c1=O` [Compound I-93], the Ki was below 50 nM.
For `CCS(=O)(=O)c1ccc(OC(CCCCN2CCN(c3ncc(C(=O)NC4C(C)(C)C(Oc5ccc(C#N)c(Cl)c5)C4(C)C)cn3)CC2)C2CC2)c(-c2cn(C)c(=O)c3[nH]ccc23)c1` (stereo not drawn) [Compound I-223, N-[3-(3-chloro-4-cyano-phenoxy)-2,2,4,4-tetramethyl-cyclobutyl]-2-[4-[5-cyclopropyl-5-[4-ethylsulfonyl-2-(6-methyl-7-oxo-1H-pyrrolo[2,3-c]pyridin-4-yl)phenoxy]pentyl]piperazin-1-yl]pyrimidine-5-carboxamide], the Ki is below 50 nM.
As for `Cn1cc(-c2cc(C(C)(C)O)ccc2Oc2cccc(OCCN3CCN(c4ncc(C(=O)N[C@H]5C(C)(C)[C@H](Oc6ccc(C#N)c(Cl)c6)C5(C)C)cn4)CC3)c2F)c2cc[nH]c2c1=O` [Compound I-99], the figure is below 50 nM.
Regarding `CCS(=O)(=O)N(C)c1ccc(Oc2cccc(N3CCN(C4CN(c5ncc(C(=O)N[C@H]6C(C)(C)[C@H](Oc7ccc(C#N)c(Cl)c7)C6(C)C)cn5)C4)CC3)c2)c(-c2cn(C)c(=O)c3[nH]ccc23)c1` [Compound I-118], the Ki is below 50 nM.
With `CCS(=O)(=O)Nc1ccc(Oc2cccc(N3CCN(C4CN(c5ncc(C(=O)N[C@H]6C(C)(C)[C@H](Oc7ccc(C#N)c(Cl)c7)C6(C)C)cn5)C4)CC3)c2)c(-c2cn(C)c(=O)c3[nH]ccc23)c1` [Compound I-126], the Ki is below 50 nM.
The molecule `CCS(=O)(=O)Nc1ccc(Oc2cccc(OCCOC3CCN(c4ncc(C(=O)N[C@H]5C(C)(C)[C@H](Oc6ccc(C#N)c(Cl)c6)C5(C)C)cn4)CC3)n2)c(-c2cn(C)c(=O)c3[nH]ccc23)c1` [Compound I-47, N-((1r, 3r)-3-(3-chloro-4-cyanophenoxy)-2,2,4,4-tetra-methylcyclobutyl)-2-(4-(2-((6-(4-(ethylsulfonamido)-2-(6-methyl-7-oxo-6,7-dihydro-1H-pyrrolo[2,3-c]pyridin-4-yl)phenoxy)pyridin-2-yl)oxy)ethoxy)piperidin-1-yl)pyrimidine-5-carboxamide] registered a Ki below 50 nM.
`Cn1cc(-c2cc(C(C)(C)O)ccc2Oc2ccc(CCC3CCN(c4ncc(C(=O)N[C@H]5C(C)(C)[C@H](Oc6ccc(C#N)c(Cl)c6)C5(C)C)cn4)CC3)cc2)c2cc[nH]c2c1=O` [Compound I-203] yielded a Ki of 50 to 500 nM.
`Cn1cc(-c2ccccc2Oc2cccc(OCCN3CCN(c4ncc(C(=O)N[C@H]5C(C)(C)[C@H](Oc6ccc(C#N)c(Cl)c6)C5(C)C)cn4)CC3)c2)c2cc[nH]c2c1=O` [Compound I-98] came in with a Ki below 50 nM.
In turn, `CCS(=O)(=O)Nc1ccc(Oc2cccc(N3CC(N(C)C4CN(c5ncc(C(=O)N[C@H]6C(C)(C)[C@H](Oc7ccc(C#N)c(Cl)c7)C6(C)C)cn5)C4)C3)c2)c(-c2cn(C)c(=O)c3[nH]ccc23)c1` [Compound I-120] returned a Ki below 50 nM.
In turn, `CCS(=O)(=O)Nc1ccc(Oc2cccc(OCCOC3CCN(c4cnc(C(=O)N[C@H]5C(C)(C)[C@H](Oc6ccc(C#N)c(Cl)c6)C5(C)C)cn4)CC3)c2)c(-c2cn(C)c(=O)c3[nH]ccc23)c1` [Compound I-71, N-((1r, 3r)-3-(3-chloro-4-cyanophenoxy)-2,2,4,4-tetramethylcyclobutyl)-5-(4-(2-(3-(4-(ethylsulfonamido)-2-(6-methyl-7-oxo-6,7-dihydro-1H-pyrrolo[2,3-c]pyridin-4-yl)phenoxy)phenoxy)ethoxy)piperidin-1-yl)pyrazine-2-carboxamide] displayed a Ki of 500 to 2500 nM.
As for `CCS(=O)(=O)Nc1ccc(Oc2cccc(OCCOC3CCN(c4ccc(C(=O)N[C@H]5C(C)(C)[C@H](Oc6ccc(C#N)c(Cl)c6)C5(C)C)cn4)CC3)c2)c(-c2cn(C)c(=O)c3[nH]ccc23)c1` [Compound I-70, N-((1r, 3r)-3-(3-chloro-4-cyanophenoxy)-2,2,4,4-tetramethylcyclobutyl)-6-(4-(2-(3-(4-(ethylsulfonamido)-2-(6-methyl-7-oxo-6,7-dihydro-1H-pyrrolo[2,3-c]pyridin-4-yl)phenoxy)phenoxy)ethoxy)piperidin-1-yl)nicotinamide], the figure is below 50 nM.
Molecule `CCS(=O)(=O)Nc1ccc(Oc2cccc(N3CC(CC4CN(c5ncc(C(=O)N[C@H]6C(C)(C)[C@H](Oc7ccc(C#N)c(Cl)c7)C6(C)C)cn5)C4)C3)c2)c(-c2cn(C)c(=O)c3[nH]ccc23)c1` [Compound I-158] showed a Ki below 50 nM.
As for `CCS(=O)(=O)Nc1ccc(Oc2cccc(OCCOCCOCCOCCOCCN(C)c3ncc(C(=O)N[C@H]4C(C)(C)[C@H](Oc5ccc(C#N)c(Cl)c5)C4(C)C)cn3)c2)c(-c2cn(C)c(=O)c3[nH]ccc23)c1` [Compound I-3], the Ki is below 50 nM.
As for `Cn1cc(-c2cc(C(C)(C)O)ccc2Oc2ccc(N3CC4(C3)CN(c3ncc(C(=O)N[C@H]5C(C)(C)[C@H](Oc6ccc(C#N)c(Cl)c6)C5(C)C)cn3)CCO4)cc2)c2cc[nH]c2c1=O` [Compound I-212], the figure is below 50 nM; as for `CCS(=O)(=O)c1ccc(Oc2cccc(OCCN3CCN(c4ncc5c(n4)CN([C@H]4C(C)(C)[C@H](Oc6ccc(C#N)c(Cl)c6)C4(C)C)C5=O)CC3)c2F)c(-c2cn(C)c(=O)c3[nH]ccc23)c1` [Compound I-217], below 50 nM.
With `Cn1cc(-c2cc(C(C)(C)O)ccc2Oc2cccc(N3CC4(CN(c5ncc(C(=O)N[C@H]6C(C)(C)[C@H](Oc7ccc(C#N)c(Cl)c7)C6(C)C)cn5)CCO4)C3)c2F)c2cc[nH]c2c1=O` [Compound I-216], the Ki is below 50 nM.
As for `Cn1cc(-c2ccccc2Oc2cccc(OCCOC3CCN(c4ncc(C(=O)N[C@H]5C(C)(C)[C@H](Oc6ccc(C#N)c(Cl)c6)C5(C)C)cn4)CC3)c2)c2cc[nH]c2c1=O` [Compound I-61, N-((1r, 3r)-3-(3-chloro-4-cyanophenoxy)-2,2,4,4-tetramethylcyclobutyl)-2-(4-(2-(3-(2-(6-methyl-7-oxo-6,7-dihydro-1H-pyrrolo[2,3-c]pyridin-4-yl)phenoxy)phenoxy)ethoxy)piperidin-1-yl)pyrimidine-5-carboxamide], the figure is below 50 nM; as for `CCS(=O)(=O)Nc1ccc(Oc2cccc(N(C)C3CN(CC4CCN(c5ncc(C(=O)NC6C(C)(C)C(Oc7ccc(C#N)c(Cl)c7)C6(C)C)cn5)CC4)C3)c2)c(-c2cn(C)c(=O)c3[nH]ccc23)c1` (stereo not drawn) [Compound I-39], below 50 nM.
`CCS(=O)(=O)Nc1ccc(Oc2cccc(CCN3CC4CN(c5ncc(C(=O)N[C@H]6C(C)(C)[C@H](Oc7ccc(C#N)c(Cl)c7)C6(C)C)cn5)CC4C3)c2)c(-c2cn(C)c(=O)c3[nH]ccc23)c1` (stereo partly drawn) [Compound I-119] displayed a Ki below 50 nM.
In turn, `CCS(=O)(=O)Nc1ccc(Oc2cccc(OCCOCCOC3CCN(c4ncc(C(=O)N[C@H]5C(C)(C)[C@H](Oc6ccc(C#N)c(Cl)c6)C5(C)C)cn4)CC3)c2)c(-c2cn(C)c(=O)c3[nH]ccc23)c1` [Compound I-13] showed a Ki below 50 nM.
